Test system: S. aureus
Assay: Vapor-phase triclosan delivery to model wound (inoculated Petri dishes), bacterial growth after incubation
Format: cell-based
Details: for Bacterial Growth after 37° C. incubation; Exposure to wound treatment system: 3 hr / Bacterial Growth after 37° C. incubation; Exposure to wound treatment system: Additional 17 hr: inoculated
Experimental: The experimental data were obtained with a model air-activated heating elements (7 Hour Hand Warmers, Grabber, Grand Rapids, Mich.) surrounding a model wound represented by inoculated Petri dishes with 5 ml of 45C TSA agar containing about 6 log CFU/ml S. aureus. For testing, from 1 to 8 triclosan strips, each containing 9 mg of triclosan, were positioned on heating elements in proximity to inoculated Petri dishes. The assembly was covered creating an enclosed compartment around the inoculated Petri dishes, with triclosan patches within thusly formed compartment on the heating elements but not in contact with the inoculated Petri dishes. The inoculated Petri dishes were taken out after 3 hr and 17 hour exposure at ambient temperature (of which heating packs provided about 7 hours of heat) and incubated at 37° C. for 24 hr to allow the bacterial colonies, if any, to grow and be evaluated. Controls tested included the same model without any heating elements; heating elements in a system with no triclosan; no heating, no triclosan for confirming inoculation and bacterial growth, no heating no triclosan no inoculation for confirming agar was not contaminated.

Oc1cc(Cl)ccc1Oc1ccc(Cl)cc1Cl [triclosan]
Bacterial Growth after 37° C. incubation; Exposure to wound treatment system: 3 hr (0 heating elements (no heat), 1 triclosan patch, 3 hr exposure): Full growth
Bacterial Growth after 37° C. incubation; Exposure to wound treatment system: Additional 17 hr (0 heating elements (no heat), 1 triclosan patch, 17 hr exposure): Full
Bacterial Growth after 37° C. incubation; Exposure to wound treatment system: 3 hr (0 heating elements (no heat), 2 triclosan patches, 3 hr exposure): Full growth
Bacterial Growth after 37° C. incubation; Exposure to wound treatment system: Additional 17 hr (0 heating elements (no heat), 2 triclosan patches, 17 hr exposure): Full
Bacterial Growth after 37° C. incubation; Exposure to wound treatment system: 3 hr (0 heating elements (no heat), 4 triclosan patches, 3 hr exposure): Partial
Bacterial Growth after 37° C. incubation; Exposure to wound treatment system: Additional 17 hr (0 heating elements (no heat), 4 triclosan patches, 17 hr exposure): Minimal
Bacterial Growth after 37° C. incubation; Exposure to wound treatment system: 3 hr (0 heating elements (no heat), 8 triclosan patches, 3 hr exposure): partial growth
Bacterial Growth after 37° C. incubation; Exposure to wound treatment system: Additional 17 hr (0 heating elements (no heat), 8 triclosan patches, 17 hr exposure): full antibacterial effect and NONE
Bacterial Growth after 37° C. incubation; Exposure to wound treatment system: 3 hr (4 heating elements, 1 triclosan patch, 3 hr exposure): NONE
Bacterial Growth after 37° C. incubation; Exposure to wound treatment system: Additional 17 hr (4 heating elements, 1 triclosan patch, 17 hr exposure): NONE
Bacterial Growth after 37° C. incubation; Exposure to wound treatment system: 3 hr (4 heating elements, 2 triclosan patches, 3 hr exposure (tests 3 and 4)): NONE
Bacterial Growth after 37° C. incubation; Exposure to wound treatment system: Additional 17 hr (4 heating elements, 2 triclosan patches, 17 hr exposure (tests 3 and 4)): NONE
Bacterial Growth after 37° C. incubation; Exposure to wound treatment system: 3 hr (4 heating elements, 4 triclosan patches, 3 hr exposure): NONE
Bacterial Growth after 37° C. incubation; Exposure to wound treatment system: Additional 17 hr (4 heating elements, 4 triclosan patches, 17 hr exposure): NONE
Bacterial Growth after 37° C. incubation; Exposure to wound treatment system: 3 hr (4 heating elements, 8 triclosan patches (9 mg each), 3 hr exposure): NONE
Bacterial Growth after 37° C. incubation; Exposure to wound treatment system: Additional 17 hr (4 heating elements, 8 triclosan patches (9 mg each), 17 hr exposure): NONE
bactericidal effect on S. aureus with vapor transfer of triclosan (in presence of heat elements, 1 strip of triclosan): full bactericidal effect
inhibition of bacterial growth (tests #1-4, 8: 4 heating elements, from 1 to 8 triclosan patches): full inhibition of bacterial growth
antibacterial effect (without heat elements, most tests): lack of antibacterial effect
